ChEMBL document CHEMBL1147885, “A novel noninvasive method for assessing glutathione-conjugate efflux systems in the brain” (Bioorg Med Chem, 2007)

Legend:
Type in all cases: ADME, organism-based
Brain [1] = test: Metabolic stability in intravenously dosed Wistar rat brain assessed as radioactivity remained in unchanged form after 15 mins by TLC; conditions: in vivo, iv, 0.25 h
Brain [2] = test: Metabolic stability in intravenously dosed Wistar rat brain assessed as metabolite level after 60 mins by HPLC; conditions: in vivo, iv, 1 h
Brain [3] = test: Metabolic stability in intravenously dosed Wistar rat brain assessed as metabolite level after 15 mins by HPLC; conditions: in vivo, iv, 0.25 h

Stability (Brain [1]): 80%
Stability (Brain [2]): 80%
Stability (Brain [3]): 80%
Structure (SMILES): [14CH3]n1cnc2ncnc(Cl)c21
